Assay results as given in PubChem BioAssay AID2124 (Sanford-Burnham Center for Chemical Genomics, 2009).
Inconclusive results are not listed. The source made the active and inactive calls. How the calls were made is not given here; tested in MIN6 cells.

Assay: cell-permeable autofluorescent compounds in GFP channel, dose response, artefact control, imaging, high-content imaging (AID 2124);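 further: cells exposed to compound for 48 hours before fixing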
Details: cells, GFP-channel autofluorescence, high-content imaging, at 10 µM; for z-score: stronger effect = higher value

CCCCCOC(=O)C1=C(C)Nc2nnnn2C1c1ccc(OC)c(OC)c1OC (stereo not given)
z-score: -0.39 (inactive)
cell count: 3580 cells

CNC(=S)NNC(=O)c1oc2nc(-c3ccccc3)cc(-c3ccco3)c2c1N
z-score: -0.3 (inactive)
cell count: 2940 cells

COc1ccc(NC(=O)c2[nH]c(C)c(C(C)=O)c2C)cc1Cl
z-score: -0.33 (inactive)
cell count: 3410 cells

CCCCNC(=O)C1CC(=O)N(C2CCCCC2)C1 (stereo not given)
z-score: -0.33 (inactive)
cell count: 3070 cells

CN1CCN(Cc2nc(N)nc(Nc3ccc4c(c3)OCCO4)n2)CC1
z-score: -0.39 (inactive)
cell count: 3330 cells

N=c1oc2c3c4c(cc2cc1C(=O)Nc1ccccc1)CCCN4CCC3
z-score: 0.18
cell count: 3140 cells

COc1cccc(OC)c1OCCN(C)C
z-score: -0.33 (inactive)
cell count: 3360 cells

Cc1cc(/C=C2\SC(=S)NC2=O)c(C)n1-c1ccc(O)cc1
z-score: -0.36 (inactive)
cell count: 3000 cells

N#C/C(=C\c1ccc(N2CCCCC2)o1)C(=O)Nc1cccc(Br)c1
z-score: 3.15
cell count: 2780 cells

CCOC(=O)CC1C(=O)NCCN1c1nc2ccc(C)cn2c(=O)c1/C=C1\SC(=S)N(C(C)CC)C1=O (stereo not given)
z-score: -0.02
cell count: 2960 cells

CC(=O)N1CCN(Cc2nc3cc(NC(=O)c4ccccc4)ccc3n2C)CC1
z-score: -0.38 (inactive)
cell count: 2960 cells

Cc1[nH]n(-c2ccc([N+](=O)[O-])cc2)c(=O)c1C=NCCN1CCN(C(=O)c2ccccc2F)CC1
z-score: -0.26 (inactive)
cell count: 3100 cells

O=c1ccc(NS(=O)(=O)c2ccccc2)cn1Cc1ccc(Cl)c(Cl)c1
z-score: -0.38 (inactive)
cell count: 3280 cells

Cc1cc(C)nc(SCSc2nc(C)cc(C)n2)n1
z-score: -0.38 (inactive)
cell count: 3370 cells

CCOC(=O)COc1ccc(C(=O)NC2CCCCC2)cc1
z-score: -0.38 (inactive)
cell count: 3240 cells

Nc1c(C(=O)O)sc2nc(-c3ccccc3)cc(-c3ccccc3)c12
z-score: -0.28 (inactive)
cell count: 3320 cells

CCOC(=O)N1CCN(C(=O)c2cc(S(=O)(=O)N3CCCC3)cn2C)CC1
z-score: -0.33 (inactive)
cell count: 3250 cells

O=c1[nH]c(/C=C/c2ccccc2OC(F)F)nc2c1cnn2-c1ccccc1
z-score: -0.38 (inactive)
cell count: 2240 cells

N#CCc1nc(CSc2nc3ccccc3s2)cs1
z-score: -0.32 (inactive)
cell count: 2980 cells

Nc1c(C(=O)c2cccs2)sc2nsc(SCCN3CCCCC3)c12
z-score: 0.3
cell count: 2930 cells

O=C(C1=NN(c2ccccc2)C2C(=O)N(c3cccc(Cl)c3)C(=O)C12)c1ccccc1 (stereo not given)
z-score: -0.32 (inactive)
cell count: 3140 cells

N#C/C(=C/c1ccc(N2CCCCC2)o1)C(=O)Nc1ccc2ccccc2c1
z-score: 5.59
cell count: 3000 cells

C=CCC(c1ccccc1)N(C(C)=O)c1ccco1 (stereo not given)
z-score: -0.33 (inactive)
cell count: 3430 cells

CCOCCCNc1nc2c(C)cccn2c(=O)c1/C=C1\SC(=S)N(CC(C)C)C1=O
z-score: -0.38 (inactive)
cell count: 2900 cells

Fc1ccc(C2NCCn3cccc32)cc1 (stereo not given)
z-score: -0.38 (inactive)
cell count: 2950 cells

CCOC(=O)c1ccc(CSc2nnc(-c3ccncc3)n2N)cc1
z-score: -0.33 (inactive)
cell count: 3110 cells

O=S(=O)([O-])CCC[n+]1c(/C=C\Nc2ccccc2)oc2ccc(-c3ccccc3)cc21
z-score: 1.34
cell count: 3120 cells

Cc1noc(/C=C/c2ccc(-c3ccccc3Cl)o2)c1[N+](=O)[O-]
z-score: 0.5
cell count: 3160 cells

COc1ccc(C(=O)Nn2cnnc2)cc1OC
z-score: -0.39 (inactive)
cell count: 2930 cells

O=C(COc1ccc(Cl)cc1)NCc1nnc(SCC(=O)NC2CCCCC2)o1
z-score: -0.32 (inactive)
cell count: 3660 cells

Cc1ccc(S(=O)(=O)C(C#N)c2nc3ccccc3nc2N2CCC(C)CC2)cc1 (stereo not given)
z-score: -0.33 (inactive)
cell count: 3260 cells

Cc1cc(Nc2nn(C)c(N)c2C#N)ccc1F
z-score: -0.33 (inactive)
cell count: 3300 cells

Cc1cc(NC(=S)N(Cc2ccc(Br)cc2)Cc2ccc(C(=O)O)cc2)ccc1Cl
z-score: -0.38 (inactive)
cell count: 2830 cells

Cc1cc(/C=N/n2cnnc2)c(C)n1-c1cccc(C(=O)O)c1
z-score: -0.33 (inactive)
cell count: 2960 cells

N#C/C(=C/c1ccc(N2CCCCCC2)o1)c1ccc(Cl)cc1
z-score: 0.94
cell count: 277 cells

CN(C)c1ccc(/C=C2\N=C(c3ccc(Cl)c([N+](=O)[O-])c3)NC2=O)cc1
z-score: -0.33 (inactive)
cell count: 2940 cells

CN(C)c1ccc(/C=C2\SC(=O)N(CCc3nnc(N)s3)C2=O)cc1
z-score: -0.3 (inactive)
cell count: 3290 cells

CC[n+]1c(/C=C/C=C/N(C(C)=O)c2ccccc2)sc2cc(OC)ccc21
z-score: 7.8
cell count: 111 cells

CC1CCc2c(sc3nn[nH]c(=O)c23)C1 (stereo not given)
z-score: -0.33 (inactive)
cell count: 2750 cells

Cc1cc(N/N=C/c2ccc([N+](=O)[O-])o2)nc2ccccc12
z-score: 0.28
cell count: 733 cells

COc1cccc(NC(=O)Cn2c(-c3cncs3)nc3ccccc32)c1
z-score: -0.39 (inactive)
cell count: 3160 cells

Cc1cc(C)cc(NC(=O)/C=C/c2ccc([N+](=O)[O-])s2)c1
z-score: 0.02
cell count: 960 cells

O=C(c1ccc2c(c1)OCO2)N1CCCC1
z-score: -0.33 (inactive)
cell count: 2960 cells

CC(=O)Cc1cc(O)c2ccccc2c1OC(=O)c1ccc(Br)cc1
z-score: -0.26 (inactive)
cell count: 2650 cells

CC(NC(=O)/C(C#N)=C1\N=C(NC(=O)c2cccs2)c2ccccc21)c1ccccc1 (stereo not given)
z-score: -0.38 (inactive)
cell count: 2810 cells

CCCn1c(SCC(=O)NC2CCCCC2)nnc1-c1ccncc1
z-score: -0.25 (inactive)
cell count: 2960 cells

COc1ccc(NC2=Nc3ccccc3N3C2=Nc2c(c(C)nn2-c2ccc(C)cc2)C3c2cccnc2)cc1 (stereo not given)
z-score: -0.31 (inactive)
cell count: 2790 cells

CCN(CCNC(=O)C1CCCN(S(=O)(=O)CC)C1)c1ccccc1 (stereo not given)
z-score: -0.33 (inactive)
cell count: 3430 cells

COC(=O)c1sc2ccccc2c1-n1cccc1C(=O)C(=O)Nc1ccc(F)cc1
z-score: -0.38 (inactive)
cell count: 3000 cells

CCOC(=O)/C(=C\C=C1/Sc2cc(OCC)c(OCC)cc2N1CC)C(C)=O
z-score: 0.55
cell count: 2790 cells

O=C(OCC(=O)N1CCN(C(=O)c2ccco2)CC1)c1ccccc1OCc1ccccc1
z-score: -0.38 (inactive)
cell count: 2850 cells

CC(=Nc1ccc(C)cc1C)c1sc2ccccc2c1O
z-score: -0.3 (inactive)
cell count: 2760 cells

Cc1ccc([N+](=O)[O-])cc1NC(=O)c1cccs1
z-score: -0.33 (inactive)
cell count: 3030 cells

C=CCn1c(SCCOc2ccc(OC)cc2)nnc1C(C)NC(=O)Cc1ccc(OC)cc1 (stereo not given)
z-score: -0.33 (inactive)
cell count: 3140 cells

Cc1cc(C2C(C#N)=C(N)Oc3n[nH]c(C)c32)c(C)s1 (stereo not given)
z-score: -0.25 (inactive)
cell count: 3010 cells

Cc1[nH]c2ccccc2c1/C=N/Nc1ccc([N+](=O)[O-])cc1S(=O)(=O)Nc1ccc(Cl)cc1
z-score: 0.35
cell count: 2050 cells

N#Cc1ccc(-c2ccccc2)nc1SCC(=O)c1cccc(Cl)c1
z-score: -0.23 (inactive)
cell count: 3340 cells

O=C1/C(=C/c2ccc(N3CCCC3)cc2)NC(=S)N1C1CC1
z-score: 0.41
cell count: 2770 cells

Cc1ccc(SCc2cc(-c3ccc(Cl)cc3)no2)cc1
z-score: -0.38 (inactive)
cell count: 2860 cells

CCc1cc(C(=O)OC)c(NC(=O)CC2Sc3ccc(C(F)(F)F)cc3NC2=O)s1 (stereo not given)
z-score: -0.39 (inactive)
cell count: 2390 cells

COc1nc(OC)nc(N2CCC(C(=O)NCc3cccs3)CC2)n1
z-score: -0.33 (inactive)
cell count: 2940 cells

O=C(O)c1cc(-c2ccncc2)nc2ccc(F)cc12
z-score: -0.39 (inactive)
cell count: 3070 cells

CCc1ccc(NC(=O)c2cc(C(C)C)on2)cc1
z-score: -0.39 (inactive)
cell count: 3050 cells

Cc1ccccc1NCC(=O)N/N=C/c1c[nH]c2ccccc12
z-score: -0.33 (inactive)
cell count: 2720 cells

CCOC(=O)/C(C#N)=C/C=C1\C=Cc2ccccc2N1CC
z-score: -0.28 (inactive)
cell count: 2720 cells

CN(C)CCOCCOc1ccccc1-c1ccccc1
z-score: -0.33 (inactive)
cell count: 3130 cells

COc1ccc(-c2nnn(CC(=O)N(CCO)C(C(=O)NC3CCCC3)c3ccc(F)cc3)n2)cc1 (stereo not given)
z-score: -0.33 (inactive)
cell count: 3200 cells

CCOc1cc(C)c(S(=O)(=O)Nc2ccc3cn[nH]c3c2)cc1C
z-score: -0.33 (inactive)
cell count: 1550 cells

C1=C(N2CCOCC2)/C(=C/c2nc3ccccc3[nH]2)CC1
z-score: -0.33 (inactive)
cell count: 3040 cells

Clc1ccc2oc(-c3ccccn3)nc2c1
z-score: -0.24 (inactive)
cell count: 2940 cells

Cc1ccc(N2C(=O)c3cccc4c(N5CCN(C)CC5)ccc(c34)C2=O)c2cccnc12
z-score: 0.07
cell count: 1800 cells

O=c1c2ccccc2c(C=Nc2ccccc2O)c(O)n1-c1nccs1
z-score: -0.35 (inactive)
cell count: 2390 cells

NCC12CC3CC(C1)CC(CN)(C3)C2
z-score: -0.36 (inactive)
cell count: 3300 cells

Cc1ccccc1OCC(=O)OC1CCN(C)CC1
z-score: -0.38 (inactive)
cell count: 2940 cells

CCn1nnc2sc3c(c2c1=O)CCC(C)C3 (stereo not given)
z-score: -0.39 (inactive)
cell count: 3170 cells

CCc1nnc(NC(=O)CCC(=O)NCc2ccccc2OC)s1
z-score: -0.38 (inactive)
cell count: 2890 cells

CN1CCN(C2=CC3=CC(=C(C#N)C#N)CCC3CC2)CC1 (stereo not given)
z-score: 0.91
cell count: 2810 cells

CN1C=CC2=C(C#N)C(N)C(C#N)(C#N)C(c3ccccc3)C2C1 (stereo not given)
z-score: 0.32
cell count: 2840 cells

CC(=O)c1c(COC(=O)c2ccncc2)nc2ccccc2[n+]1[O-]
z-score: -0.33 (inactive)
cell count: 2880 cells

COc1ccc(OC)c(C2=NOC(C(=O)NCC3CCCO3)C2)c1 (stereo not given)
z-score: -0.39 (inactive)
cell count: 2830 cells
